Experiments:
L. jensenii = assay: MIC against commensal vaginal Lactobacillus strains; format: cell-based, Lactobacillus jensenii; details: for MIC: Lactobacillus jensenii
Source text: N. gonorrhoeae pathogenesis greatly depends on colonization of the reproductive tract. One of the natural barriers of such colonization is an intact healthy microbiome. Species of lactobacilli present in the genitourinary tract play a significant role in hindering colonization by Neisseria(1).
A healthy vaginal microbiome that is dominated by Lactobacillus spp. is less susceptible to N. gonorrhoeae infection and other sexually transmitted diseases (STDs). […] We tested the activity of azoles against important members of healthy vaginal microbiota that inhibit N. gonorrhoeae colonization.

N. gonorrhoeae [1] = assay: Post-antibiotic effect (PAE) against N. gonorrhoeae; format: cell-based, Neisseria gonorrhoeae; details: 1 h exposure at 10×MIC
Source text: Determining the PAE of a new antimicrobial is an important step for dosing and has clinical importance.

N. gonorrhoeae [2] = assay: Drug library screen against N. gonorrhoeae; format: cell-based, Neisseria gonorrhoeae; details: Johns Hopkins Clinical Compounds Library, MCE FDA-Approved Drug Library, Pharmakon library; killing in clinical range
Source text: To identify drugs capable of killing Neisseria gonorrhoeae, the Johns Hopkins Clinical Compounds Library (1514), the MCE FDA-Approved Drug Library (2441), and the Pharmakon library (1600) were screened against N. gonorrhoeae. Positive hits that are capable of killing Neisseria gonorrhoeae in clinical range were identified (itraconazole, ravuconazole and isavuconazole).

MIC (L. jensenii; L. jensenii HM-105): > 256 µg/mL | MIC (L. jensenii; L. jensenii HM-372): > 256 µg/mL | MIC (L. jensenii; L. jensenii HM-374): > 256 µg/mL | MIC (L. jensenii; L. jensenii HM-639): > 256 µg/mL | MIC (L. jensenii; L. jensenii HM-640): > 256 µg/mL | MIC (L. jensenii; L. jensenii HM-645): > 256 µg/mL | MIC (L. jensenii; L. jensenii HM-646): > 256 µg/mL | MIC Range (L. jensenii; Table 6, L. jensenii (7 strains)): ≥256 µg/mL
SMILES: C[C@@H](c1nc(-c2ccc(C#N)cc2)cs1)[C@](O)(Cn1cncn1)c1cc(F)ccc1F [Isavuconazole]
PAE (N. gonorrhoeae [1]; strain FA 1090): 10 h | PAE (N. gonorrhoeae [1]; strain WHO P): 10 h | PAE (N. gonorrhoeae [1]; strain WHO Y): 10 h | screening outcome (N. gonorrhoeae [2]): Positive hits
